These results are taken from US10781209B2, “1H-pyrrolo[2,3-c]pyridin-7(6H)-ones and pyrazolo[3,4-c]pyridin-7(6H)-ones as inhibitors of BET proteins” (Incyte Corporation, priority 2014, dated 2020).

The test system of the experiment is KMS.12.BM cells. As to the kind of experiment: KMS.12.BM cell viability assay (Cell Titer-GLO, ATP quantitation). The format is cell-based. As to conditions: 72 h, human myeloma cell line, 3 days, concentration required for 50% cell death. As for the experimental part:
KMS.12.BM cell line (human myeloma) was purchased from JCRB (Osaka, Japan) and maintained in RPMI with 10% FBS culture medium. To measure the cytotoxic activity of the compounds through ATP quantitation, the KMS.12.BM cells are plated in the RPMI culture medium at 5000 cells/well/per 100 μL into a 96-well polystyrene clear black tissue culture plate (Greiner-bio-one through VWR, NJ), in the presence or absence of a concentration range of test compounds. After 3 days, […] Cell Titer-GLO Luminescent (Promega, Madison, Wis.) cell culture agent is added to each well for 10 minutes at room temperature to stabilize the luminescent signal. This determines the number of viable cells in culture based on quantitation of the ATP present, which signals the presence of metabolically active cells. Luminescence is measured with the Top Count 384 (Packard Bioscience through Perkin Elmer, Boston, Mass.). Compound inhibition is determined relative to cells cultured with no drug and the IC50 is reported as the compound concentration required for 50% cell death.
(In general: ATP-based viability assays read luminescence as a measure of living cells.)

A value given as a limit tells only on which side of the number the result lay.

With `Cn1cc(-c2cccc3c2OC(c2ccccn2)C(=O)N3)c2cc[nH]c2c1=O` (stereo not shown) [Example 5, 8-(6-methyl-7-oxo-6,7-dihydro-1H-pyrrolo[2,3-c]pyridin-4-yl)-2-pyridin-2-yl-2H-1,4-benzoxazin-3(4H)-one 2,2,2-trifluoroacetate], the IC50 (usually the point on the concentration scale where inhibition reaches its midpoint) was ≤ 1 µM.
